Source: patent publication US7148253B2, “4-thio coumarins” (priority 2002, dated 2006)
“And” between values parts separate entries of the source, which are not always exact repeats. Equal values may be shown once.

How the values were obtained:
[1] = test system: HCV RNA in stably HCV RNA-replicating cell line AVA5; assay: Primary in vitro anti-HCV screen: intracellular HCV RNA levels in AVA5 cells (branched DNA assay); type: cell-based, Hepatitis C virus; conditions: 10 μM, AVA5, duplicate cultures; for HCV % Control: HCV RNA as percentage of untreated cultures; for HCV Copies/ml: once daily for three days
Method: Primary in vitro anti-HCV screen. The antiviral activity of test compounds were assayed in the stably HCV RNA-replicating cell line, AVA5, derived by transfection of the human hepatoblastoma cell line, Huh7 (Blight, et al., 2000, Science 290: 1972). The test compounds were added to dividing cultures once daily for three days. The media was changed with each addition of the compounds. […] Intracellular HCV RNA levels and cytotoxicity are assessed 24 hours after the last dose of compound.
(§1) Assays were conducted using a single dose of test compound. Duplicate cultures for HCV RNA levels (on 48-well plates) and triplicate cultures for cytotoxicity (on 96-well plates) are used.
(§2) Intracellular HCV RNA levels were measured using a commercial assay (Veresant®, Bayer Diagnostics, Inc. Ross, et al. (2002) J. Virol. Meth. 101:159–168, Quantitation of hepatitic C virus RNA by third generation branched DNA-based signal amplification assay). Cytotoxicity was measured using an established neutral red dye uptake assay (Korba, B. E. and J. L. Gerin. 1992. Use of a standardized cell culture assay to determine activities of nucleoside analogs against hepatitis B virus relication. Antivir. Res. 19:55–70). HCV RNA levels in the treated cultures are expressed as a percentage of the mean levels of RNA detected in untreated cultures. A level of 30% or less, HCV RNA relative to control cultures may be considered to be a positive antiviral effect. A level of 50% or less, neutral red dye uptake relative to control cultures may be considered to be a cytotoxic effect.

[2] = test system: HCV RNA-replicating cell line AVA5; assay: Normalized Viral Assay; type: cell-based, Hepatitis C virus
Method: (§3) Primary in vitro anti-HCV screen. The antiviral activity of test compounds were assayed in the stably HCV RNA-replicating cell line, AVA5, derived by transfection of the human hepatoblastoma cell line, Huh7 (Blight, et al., 2000, Science 290: 1972). The test compounds were added to dividing cultures once daily for three days. The media was changed with each addition of the compounds. Cultures generally start the assay at 30–50% confluence and reach confluence during the last day of treatment.

AVA5 cell line [3] = assay: MTS Cell Viability
[4] = test system: AVA5 cell line (derived from human hepatoblastoma cell line Huh7); assay: Primary screen cytotoxicity: neutral red dye uptake; type: cell-based; conditions: 10 μM, AVA5; for Neutral Red % Control: dye uptake relative to untreated cultures
Method: as §3, §1, §2

AVA5 cell line [5] = assay: ATP Cell Viability

`O=c1oc2ccccc2c(Sc2ccc(Br)cc2)c1Sc1ccc(F)cc1` [VQ_412] was tested, and the “HCV % Control” value [1] was 54 % Control and 49 % Control and the “HCV Copies/ml” value [1] was 726473 Copies/ml and 656755 Copies/ml.

In the case of `Cc1ccc(Sc2c(Sc3ccc(F)cc3Cl)c3ccccc3oc2=O)cc1C` [VQ_437], the “HCV % Control” value [1] is reported as 41 % Control and 38 % Control and the “HCV Copies/ml” value [1] is reported as 556515 Copies/ml and 507191 Copies/ml.

With `Cc1cc(C)cc(Sc2c(Sc3cccc(Cl)c3)c3ccccc3oc2=O)c1` [VQ_468] the “HCV % Control” value [1] was 23 % Control and 24 % Control and the “HCV Copies/ml” value [1] was 306102 Copies/ml and 318777 Copies/ml.

In the case of `Cc1cc(C)cc(Sc2c(Sc3ccc(F)cc3Cl)c3ccccc3oc2=O)c1` [VQ_473], the “HCV % Control” value [1] is reported as 39 % Control and the “HCV Copies/ml” value [1] is reported as 529743 Copies/ml and 523506 Copies/ml.

`O=c1oc2ccccc2c(Sc2ccc(Br)cc2)c1Sc1ccc(F)cc1` [compound 412] was tested, and the “Normalized Viral Assay” value ([2]; 1 μM) was 55.65, the “Normalized Viral Assay” value ([2]; 5 μM) was 28.13 and the “Normalized Viral Assay” value ([2]; 10 μM) was 16.13.

`Cc1ccc(Sc2c(Sc3ccc(F)cc3Cl)c3ccccc3oc2=O)cc1C` [compound 437] was tested, and the “Normalized Viral Assay” value ([2]; 1 μM) was 59.33, the “Normalized Viral Assay” value ([2]; 5 μM) was 34.83 and the “Normalized Viral Assay” value ([2]; 10 μM) was 20.41.

With `Cc1cc(C)cc(Sc2c(Sc3ccc(F)cc3Cl)c3ccccc3oc2=O)c1` [compound 473] the “Normalized Viral Assay” value ([2]; 1 μM) was 68.16, the “Normalized Viral Assay” value ([2]; 5 μM) was 40.79 and the “Normalized Viral Assay” value ([2]; 10 μM) was 12.45.

`COc1ccc2oc(=O)cc(Sc3ccccc3F)c2c1` [compound 824] was tested, and the “MTS Cell Viability” value (AVA5 cell line [3]; 5 μM) was 94.56, the “MTS Cell Viability” value (AVA5 cell line [3]; 10 μM) was 84.15 and the “Neutral Red % Control” value ([4]; listed as VQ_824) was 99 % Control and 102 % Control. For the same molecule, the “Neutral Red O.D.” value ([4]; listed as VQ_824) was 2.214 O.D. and 2.274 O.D, the “HCV % Control” value ([1]; listed as VQ_824) was 101 % Control and 90 % Control and the “HCV Copies/ml” value ([1]; listed as VQ_824) was 1357786 Copies/ml and 1211659 Copies/ml. For the same molecule, the “ATP Cell Viability” value (AVA5 cell line [5]; 5 μM) was 91.28, the “ATP Cell Viability” value (AVA5 cell line [5]; 10 μM) was 75.61 and the “Normalized Viral Assay” value ([2]; 5 μM) was 52.29. For the same molecule, the “Normalized Viral Assay” value ([2]; 10 μM) was 17.28.

For `COc1ccc2oc(=O)cc(Sc3ccc(F)cc3F)c2c1` [compound 830], the “MTS Cell Viability” value (AVA5 cell line [3]; 1 μM) was 112.38, the “MTS Cell Viability” value (AVA5 cell line [3]; 5 μM) was 101.06 and the “MTS Cell Viability” value (AVA5 cell line [3]; 10 μM) was 98.85. The “ATP Cell Viability” value (AVA5 cell line [5]; 1 μM) was 106.44, the “ATP Cell Viability” value (AVA5 cell line [5]; 5 μM) was 97.11 and the “ATP Cell Viability” value (AVA5 cell line [5]; 10 μM) was 104.41. The “Normalized Viral Assay” value ([2]; 1 μM) was 87.63, the “Normalized Viral Assay” value ([2]; 5 μM) was 46.87 and the “Normalized Viral Assay” value ([2]; 10 μM) was 40.35.

For `O=c1cc(Sc2ccccc2Cl)c2cc(F)ccc2o1` [compound 894], the “MTS Cell Viability” value (AVA5 cell line [3]; 1 μM) was 104.53, the “MTS Cell Viability” value (AVA5 cell line [3]; 5 μM) was 83.91 and the “MTS Cell Viability” value (AVA5 cell line [3]; 10 μM) was 81.24. For the same molecule, the “Neutral Red % Control” value ([4]; listed as VQ_894) was 100 % Control and 101 % Control, the “Neutral Red O.D.” value ([4]; listed as VQ_894) was 2.234 O.D. and 2.257 O.D and the “HCV % Control” value ([1]; listed as VQ_894) was 95 % Control and 84 % Control. For the same molecule, the “HCV Copies/ml” value ([1]; listed as VQ_894) was 1277826 Copies/ml and 1128325 Copies/ml, the “ATP Cell Viability” value (AVA5 cell line [5]; 1 μM) was 113.25 and the “ATP Cell Viability” value (AVA5 cell line [5]; 5 μM) was 109.42. For the same molecule, the “ATP Cell Viability” value (AVA5 cell line [5]; 10 μM) was 58.26, the “Normalized Viral Assay” value ([2]; 1 μM) was 35.65 and the “Normalized Viral Assay” value ([2]; 5 μM) was 9.04. The “Normalized Viral Assay” value ([2]; 10 μM) was 6.84.

In the case of `O=c1cc(Sc2ccc(F)cc2Cl)c2cc(F)ccc2o1` [compound 899], the “MTS Cell Viability” value (AVA5 cell line [3]; 1 μM) is reported as 106.10, the “MTS Cell Viability” value (AVA5 cell line [3]; 5 μM) is reported as 90.22 and the “MTS Cell Viability” value (AVA5 cell line [3]; 10 μM) is reported as 85.37. The “Neutral Red % Control” value ([4]; listed as VQ_899) was 100 % Control and 102 % Control, the “Neutral Red O.D.” value ([4]; listed as VQ_899) was 2.237 O.D. and 2.286 O.D and the “HCV % Control” value ([1]; listed as VQ_899) was 66 % Control and 65 % Control. The “HCV Copies/ml” value ([1]; listed as VQ_899) was 886875 Copies/ml and 873484 Copies/ml, the “ATP Cell Viability” value (AVA5 cell line [5]; 1 μM) was 102.77 and the “ATP Cell Viability” value (AVA5 cell line [5]; 5 μM) was 112.43. The “ATP Cell Viability” value (AVA5 cell line [5]; 10 μM) was 105.60, the “Normalized Viral Assay” value ([2]; 1 μM) was 40.10 and the “Normalized Viral Assay” value ([2]; 5 μM) was 10.66. For the same molecule, the “Normalized Viral Assay” value ([2]; 10 μM) was 10.32.
